Legend:
[1] = tested on: ticks, fleas, and mosquitoes; assay: Pesticidal activity against all three arthropods, general statements (Examples 9, 17); assay type: in vivo; settings: 24 hours exposure; initial screenings
Method: Concentrations of the compounds were prepared by 2-fold serial dilutions of a 0.5% (wt:vol) solution of the extracts in acetone (see, e.g., Panella et al., J. Med. Entomol., 42(3):352-358, 2005). The approximate toxicity of individual compounds and compounds in combination was determined with a total of 8 doses ranging from 0.002% to 0.25%. […] A control treated with acetone only was run with each series. Tick and flea susceptibility was evaluated using a modification of the disposable pipette method of Barnard et al. (J. Econ. Entomol., 74:466–69, 1981) and Maupin and Piesman (J. Med. Entomol., 31:319–321, 1994).
(§1) Briefly, groups of 10 nymphal I. scapularis and X. cheopis fleas were used in all tests (more than a total of 5,240 nymphs and 4,860 fleas were exposed to the compounds). The inner surface of 2-dram friction cap vials were treated with the compound/acetone solution, or acetone only as a control, and left to air-dry overnight (see also, Panella et al., J. Med. Entomol., 42(3):352-358, 2005. Three to 4 holes were made in the plastic cap to allow for air exchange. Nymphal ticks and adult fleas were then placed directly into the vials using forceps. Vials containing ticks or fleas were placed in desiccators for 24 h at 21° C. and 90% RH. Morbidity and mortality was recorded at 1, 2, 4, 8, and 24 h after initial exposure.
Adult mosquitoes were tested using the bottle bioassay method of Brogden and McAllister (J. Am. Mosq. Control Assoc., 14:159–64, 1998) with minor modifications. Natural product extracts were two-fold serially diluted for a total of 8 concentrations ranging from 0.002% to 0.25% in 1.5 ml of acetone. Individual dilutions were added to 250 ml Wheaton glass bottles and capped. Bottles were manipulated to evenly coat all inner surfaces. The caps were removed and bottles were allowed to air-dry overnight. […] Morbidity and mortality were recorded at 15, 30, 45, and 60 min and 24 hour intervals. […] The dose-mortality data was evaluated with probit analysis, using the LdP Line software, to determine LC50 and LC90 values.

[2] = tested on: adult Xenopsylla cheopis fleas; assay: Treated-vial biocidal screening with 2% acetone solutions (Example 2), adult fleas, residual; assay type: in vivo; settings: treated vials sat 5 wk; arthropods added for the final 24 h
Method: (§2) Samples of the compounds listed below were obtained as described in Example 1, and screened for biocidal activities against nymphal Ixodes scapularis. In this example, 2% acetone solutions (wt/vol) of the compounds were applied to inner surfaces of 2-dram friction cap vials. Vials and caps were treated then allowed to dry for a minimum of 4 hours before placing 10 nymphs in each container. These same vials were used to challenge additional nymphs and adult I. scapularis ticks and adult Xenopsylla cheopis fleas through five weeks to observe any possible residual activity.
(§3) Numbers in parentheses refer to length of treatment in terms of hours (h) or weeks (wk). Data is presented in terms of number killed/number tested. For test periods longer than 24 hours, the treated vials were allowed to sit for the stated period after drying (72 h, 4 wk, or 5 wk) and each group of arthropods was added to the vials for the final 24 h of the test period.

Ixodes scapularis nymphs = assay: Residual activity, aged treated vials, ticks; assay type: in vivo; settings: 1 week after treatment
Method: as §1

[3] = tested on: ticks, fleas, and mosquitoes; assay: Residual activity, general statements (Examples 9, 17); assay type: in vivo; settings: ticks
X. cheopis adults = assay: Flea bioassay, treated 2-dram vials, probit analysis; assay type: in vivo, Xenopsylla cheopis; settings: 24 h exposure; for Slope: probit
Method: Med. […] A control treated with acetone only was run with each series. Tick and flea susceptibility was evaluated using a modification of the disposable pipette method of Barnard et al. (J. Econ. Entomol., 74:466-69, 1981) and Maupin and […]. Med. […] The inner surface of 2-dram friction cap vials were treated with the compound/acetone solution, or acetone only as a control, and left to air-dry overnight (see also, […] et al., J. Med. […] Three to 4 holes were made in the plastic cap to allow for air exchange. Nymphal ticks and adult fleas were then placed directly into the vials using forceps. […] For each time point, if ticks and fleas were incapable of movement, maintaining normal posture, leg coordination, ability to right themselves, or any signs of life, they were considered moribund or dead.

Aedes aegypti adults = assay: Residual activity, aged treated bottles, mosquitoes; assay type: in vivo; settings: 1 week after treatment
Method: (§4) Adult mosquitoes were tested using the bottle bioassay method of Brogden and McAllister (J. Am. Mosq. Control Assoc., 14:159–64, 1998) with minor modifications. Natural product extracts were two-fold serially diluted for a total of 8 concentrations ranging from 0.002% to 0.25% in 1.5 ml of acetone. Individual dilutions were added to 250 ml Wheaton glass bottles and capped. Bottles were manipulated to evenly coat all inner surfaces. The caps were removed and bottles were allowed to air-dry overnight. Once bottles were completely dry, 10–50 (in some tests 25–50) adult mosquitoes were aspirated into the bottles. Mosquitoes were held in the bottles for 24 h at 23° C. and 85% RH. Morbidity and mortality were recorded at 15, 30, 45, and 60 min and 24 hour intervals. One bottle for each replicate was treated with acetone only and served as a control. The dose-mortality data was evaluated with probit analysis, using the LdP Line software, to determine LC50 and LC90 values.

I. scapularis nymphs = assay: Tick bioassay, treated 2-dram vials, probit analysis; assay type: in vivo, Ixodes scapularis; settings: 24 h exposure; for LC50 / LC90: NE = not effective at concentrations tested; for Slope: probit
From the text: A control treated with acetone only was run with each series.
For each time point, if ticks and fleas were incapable of movement, maintaining normal posture, leg coordination, ability to right themselves, or any signs of life, they were considered moribund or dead.

[4] = tested on: adult I. scapularis ticks; assay: Treated-vial biocidal screening with 2% acetone solutions (Example 2), adult ticks, residual; assay type: in vivo, Ixodes scapularis; settings: treated vials sat 4 wk; arthropods added for the final 24 h
Method: as §2, §3

[5] = tested on: nymphal Ixodes scapularis; assay: Treated-vial biocidal screening with 2% acetone solutions (Example 2), tick nymphs; assay type: in vivo; settings: treated vials sat 72 h; arthropods added for the final 24 h
Method: as §2, §3

Ae. aegypti adults = assay: Adult mosquito bottle bioassay; assay type: in vivo, Aedes aegypti; settings: 24 h exposure; for Slope: probit
Method: as §4
Carvacrol was combined with compound 7, 9, or 10 at a 1:1 ratio (7.5 μl of carvacrol:7.5 μl of compound 7, 9, or 10 was added to 2,985 μl of acetone for a 0.5% solution, from which serial dilutions were made), and tested as previously described against nymphal ticks and adult and larval mosquitoes.

[6] = tested on: ticks, fleas, formicids and termites; assay: Persistence of biocidal activity in vials treated with 2% solutions (Example 5); assay type: in vivo; settings: at 11 weeks
Method: as §2
Persistence of biocidal activity was determined for nootkatone and valencene-11,12-epoxide by using the vials as treated with the 2% solutions of Example 2. This bioassay employed groups of ticks, fleas, formicids and termites using a method similar to that described in Example 2. […] At 11 weeks, the biocidal activity began to dissipate below the 100% mortality level.

[7] = NE = not effective at concentrations tested

Q: `CC1=CCC2C(C1)C2(C)C` (stereo not shown) [Compound 1, 3-Carene] was tested. Which pesticidal activity [1] did it give?
A: Its pesticidal activity is “no pesticidal activity”.

Q: Which results are given for `C=C(C)C1CC=C2C=CCC(C)C2(C)C1` (stereo not shown) [Compound 6, Nootkatene]?
A: X. cheopis adults (5 wk), number killed/number tested [2]: 0/5; Slope, residual activity (Ixodes scapularis nymphs): 0.533; residual activity [3]: did not demonstrate any residual activity after one week; LC50 (X. cheopis adults; [7]): 0.017 percent concentration, wt:vol; Slope (X. cheopis adults): 2.022; LC90, residual activity (Aedes aegypti adults): 0.659 percent concentration, wt:vol; Slope, residual activity (Aedes aegypti adults): 1.833; LC50 (I. scapularis nymphs): 0.011 percent concentration, wt:vol; LC90 (I. scapularis nymphs): 0.06 percent concentration, wt:vol; Slope (I. scapularis nymphs): 1.763; I. scapularis adults (4 wk), number killed/number tested [4]: 0/5; I. scapularis nymphs (72 h), number killed/number tested [5]: 4/5; LC50 (Ae. aegypti adults; [7]): 0.027 percent concentration, wt:vol; Slope (Ae. aegypti adults): 3.696

Q: Which results are given for `C[C@@H]1CCC=C2CCC(C3(C)CO3)C[C@]21C` (stereo partly shown) [Compound 13, valencene-11,12-epoxide]?
A: LC50 (I. scapularis nymphs): 21.219 percent concentration, wt:vol; LC90 (I. scapularis nymphs): 3713.114 percent concentration, wt:vol; Slope (I. scapularis nymphs): 0.571; mortality level [6]: < 100%; Slope (Ae. aegypti adults): 1.581

Q: Which results are given for `C=C(C)[C@@H]1CCC2=CCC[C@@H](C)[C@]2(C)C1` [Compound 5, Valencene]?
A: X. cheopis adults (5 wk), number killed/number tested [2]: 0/5; Slope (X. cheopis adults): 6.925; Slope (I. scapularis nymphs): 0.684; I. scapularis adults (4 wk), number killed/number tested [4]: 0/5; I. scapularis nymphs (72 h), number killed/number tested [5]: 0/5; LC50 (Ae. aegypti adults; [7]): 0.015 percent concentration, wt:vol; LC90 (Ae. aegypti adults; [7]): 0.037 percent concentration, wt:vol; Slope (Ae. aegypti adults): 3.199

Source: patent publication US7230033B2, “Pest control compositions and methods for their use” (United States of America as represented by the Secretary of …, priority 2000, dated 2007)
